Our source for the EC50 and Ki values is ChEMBL document CHEMBL1136512, “Discovery of a novel series of 6-azauracil-based thyroid hormone receptor ligands: potent, TR beta subtype-selective thyromimetics” (Bioorg Med Chem Lett, 2003).

For the first experiment, the target named is T1, Thyroid hormone receptor beta (Homo sapiens, UniProt P10828).
T1 sequence (P10828 whole entry): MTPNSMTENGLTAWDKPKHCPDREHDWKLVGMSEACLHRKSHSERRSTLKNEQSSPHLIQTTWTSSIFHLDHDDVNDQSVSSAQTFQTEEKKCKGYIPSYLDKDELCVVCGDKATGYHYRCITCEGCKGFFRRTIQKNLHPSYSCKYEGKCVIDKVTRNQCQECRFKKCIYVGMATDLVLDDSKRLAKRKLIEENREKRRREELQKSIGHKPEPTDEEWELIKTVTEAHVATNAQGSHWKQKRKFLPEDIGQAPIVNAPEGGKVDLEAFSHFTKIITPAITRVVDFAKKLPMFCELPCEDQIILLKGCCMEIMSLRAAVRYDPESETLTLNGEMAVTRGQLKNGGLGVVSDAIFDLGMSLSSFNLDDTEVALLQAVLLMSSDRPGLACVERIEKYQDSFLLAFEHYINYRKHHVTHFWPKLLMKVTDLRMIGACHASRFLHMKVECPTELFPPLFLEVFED
Kind of experiment: Effective concentration binding towards TR-beta-1 in E25B2 cells (agonistic activity).
Usually EC50 stands for the concentration that produces a half-maximal response. As for `O=c1cnn(-c2cc(Cl)c(Oc3ccc(O)c(S(=O)(=O)N4C5CCC4CC4(CCCO4)C5)c3)c(Cl)c2)c(=O)[nH]1` (stereo unspecified), it took 62 nM to reach a half-maximal effect (EC50).

Another experiment has as its target T1, Thyroid hormone receptor beta.
What is called Ki is the dissociation constant of the complex between target and ligand, obtained from inhibition or displacement. The compound `Cc1cc(-n2ncc(=O)[nH]c2=O)cc(Cl)c1Oc1ccc(O)c(C(=O)N2CCCCC2)c1` returned a Ki of 1.9 nM.

For the compound `O=C(c1cc(Oc2c(Cl)cc(-n3ncc(=O)[nH]c3=O)cc2Cl)ccc1O)N1CC2CCC1C2` (racemic; endo), the Ki was 0.16 nM. This Ki lies about 12-fold lower than the previous one.

The compound `O=C(c1cc(Oc2c(Cl)cc(-n3ncc(=O)[nH]c3=O)cc2Cl)ccc1O)N1CCOCC1` came in with an inhibitory constant (Ki) of 0.72 nM.

Compound `O=C(c1cc(Oc2c(Cl)cc(-n3ncc(=O)[nH]c3=O)cc2Cl)ccc1O)N1CCCCC1` yielded a Ki of 0.63 nM.

As for `Cc1cc(-n2ncc(=O)[nH]c2=O)cc(Cl)c1Oc1ccc(O)c(S(=O)(=O)N2CCN(C)CC2)c1`, the Ki was 13 nM.

For the compound `Cc1cc(-n2ncc(=O)[nH]c2=O)cc(Cl)c1Oc1ccc(O)c(S(=O)(=O)N2CCOCC2)c1`, the affinity corresponds to a Ki of 27 nM.

Turning to `O=C(NC1CCC1)c1cc(Oc2c(Cl)cc(-n3ncc(=O)[nH]c3=O)cc2Cl)ccc1O`, the Ki amounted to 0.64 nM. Compared with the last compound, the Ki is about 42-fold lower.

`Cc1cc(-n2ncc(=O)[nH]c2=O)cc(C)c1Oc1ccc(O)c(S(=O)(=O)N2CCCCC2)c1` yielded a Ki of 0.46 nM.

For `O=c1cnn(-c2cc(Cl)c(Oc3ccc(O)c(S(=O)(=O)Nc4ccccc4)c3)c(Cl)c2)c(=O)[nH]1`, the Ki amounted to 0.1 nM.

Take `O=C(NC1CCCCC1)c1cc(Oc2c(Cl)cc(-n3ncc(=O)[nH]c3=O)cc2Cl)ccc1O`: the Ki came out at 0.07 nM. This Ki and that of the compound before are within 1.5-fold of each other.

The compound `Cc1cc(N2CCCNC2=O)cc(C)c1Oc1ccc(O)c(C(C)C)c1` registered an inhibitory constant (Ki) of 10000 nM.

In turn, `O=c1cnn(-c2cc(Cl)c(Oc3ccc(O)c(S(=O)(=O)NC4CCCCC4)c3)c(Cl)c2)c(=O)[nH]1` yielded an inhibition constant Ki of 0.46 nM.

As to `CC1(C)C2CCC(NC(=O)c3cc(Oc4c(Cl)cc(-n5ncc(=O)[nH]c5=O)cc4Cl)ccc3O)C1C2` (stereo in doubt; 9j), the affinity, expressed as Ki, was 0.04 nM. This Ki lies about 12-fold lower than the previous one.

The compound `O=c1cnn(-c2cc(Cl)c(Oc3ccc(O)c(S(=O)(=O)N4C5CCC4CC4(C5)OCCO4)c3)c(Cl)c2)c(=O)[nH]1` yielded a Ki of 0.31 nM.

In turn, `O=c1cnn(-c2cc(Cl)c(Oc3ccc(O)c(S(=O)(=O)N4CCCCC4)c3)c(Cl)c2)c(=O)[nH]1` yielded a Ki of 0.02 nM.

`O=C(c1cc(Oc2c(Cl)cc(-n3ncc(=O)[nH]c3=O)cc2Cl)ccc1O)N1CC2CCC1C2` (racemic; exo) showed an inhibitory constant (Ki) of 0.59 nM.

The compound `CSc1ccc(Oc2c(C)cc(-n3ncc(=O)[nH]c3=O)cc2C)cc1C` registered a Ki of 2 nM. Against the preceding compound, the Ki is about 3.4-fold higher.

`CC1(C)C2CCC(NC(=O)c3cc(Oc4c(Cl)cc(-n5ncc(=O)[nH]c5=O)cc4Cl)ccc3O)C1C2` (stereo in doubt; 9i) yielded a Ki of 0.06 nM.

`O=c1cnn(-c2cc(Cl)c(Oc3ccc(O)c(S(=O)(=O)NC4CCC4)c3)c(Cl)c2)c(=O)[nH]1`: the affinity corresponds to a Ki of 0.4 nM.

Compound `O=C(c1cc(Oc2c(Cl)cc(-n3ncc(=O)[nH]c3=O)cc2Cl)ccc1O)N1CC2CCC1C2` (stereo in doubt; 9h (R)-(+)) gave a Ki of 0.37 nM. The Ki values of the last two compounds are within 1.5-fold of each other.

Consider `O=c1cnn(-c2cc(Cl)c(Oc3ccc(O)c(S(=O)(=O)N4C5CCC4CC4(CCCO4)C5)c3)c(Cl)c2)c(=O)[nH]1` (stereo unspecified), for which the Ki was found to be 0.28 nM.

Regarding `O=c1cnn(-c2cc(Cl)c(Oc3ccc(O)c(S(=O)(=O)n4ccc5ccccc54)c3)c(Cl)c2)c(=O)[nH]1`, the Ki was determined as 0.23 nM.

In turn, `Cc1cc(-n2ncc(=O)[nH]c2=O)cc(Cl)c1Oc1ccc(O)c(S(=O)(=O)N2CCCCC2)c1` registered a Ki of 0.13 nM.

The target of a further experiment is T2, Thyroid hormone receptor alpha (Homo sapiens, UniProt P10827).
T2 sequence (P10827 whole entry): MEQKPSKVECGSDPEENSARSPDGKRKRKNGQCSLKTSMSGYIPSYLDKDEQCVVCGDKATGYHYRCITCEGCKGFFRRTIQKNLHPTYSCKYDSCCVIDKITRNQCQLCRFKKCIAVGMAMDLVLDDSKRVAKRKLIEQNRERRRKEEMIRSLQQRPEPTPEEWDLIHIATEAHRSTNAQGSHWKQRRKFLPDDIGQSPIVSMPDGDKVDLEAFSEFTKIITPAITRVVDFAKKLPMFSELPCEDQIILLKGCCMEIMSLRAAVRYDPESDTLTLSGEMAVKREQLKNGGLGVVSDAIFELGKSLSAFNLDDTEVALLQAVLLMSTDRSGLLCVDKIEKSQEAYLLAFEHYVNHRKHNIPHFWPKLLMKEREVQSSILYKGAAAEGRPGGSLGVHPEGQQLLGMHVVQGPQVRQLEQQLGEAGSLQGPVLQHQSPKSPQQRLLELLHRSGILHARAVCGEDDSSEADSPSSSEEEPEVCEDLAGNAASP
Description: Effective concentration binding towards TRalpha in E25B2 cells (agonistic activity)
`CC1(C)C2CCC(NC(=O)c3cc(Oc4c(Cl)cc(-n5ncc(=O)[nH]c5=O)cc4Cl)ccc3O)C1C2` (stereo in doubt; 9i) had an EC50 of 12 nM.

Consider `O=c1cnn(-c2cc(Cl)c(Oc3ccc(O)c(S(=O)(=O)N4C5CCC4CC4(CCCO4)C5)c3)c(Cl)c2)c(=O)[nH]1` (stereo unspecified), for which the EC50 stood at 1500 nM.
